For two compounds, EC50 results are on record in US20180327396A1, “NOVEL PYRIDINE DERIVATIVES” (Hoffmann-La Roche Inc., priority 2014, published 2018).

By EC50 is commonly meant the concentration that produces a half-maximal response.

In this assay the target is T1, human CB2 receptors (Homo sapiens, UniProt P34972).
T1 construct: expressed in transfected cells; host or cells: CHO cells
The assay is described as follows: cAMP assay. It counts as cell-based. The conditions noted are these: CHO cells expressing human CB2 receptors; read-out: cAMP assay human CB2 EC50. Here is the method:
CHO cells expressing human CB1 or CB2 receptors are seeded 17-24 hours prior to the experiment 50.000 cells per well in a black 96 well plate with flat clear bottom (Corning Costar #3904) in DMEM (Invitrogen No. 31331), 1× HT supplement, with 10% fetal calf serum and incubated at 5% CO2 and 37° C. in a humidified incubator. The growth medium was exchanged with Krebs Ringer Bicarbonate buffer with 1 mM IBMX and incubated at 30° C. for 30 min. Compounds were added to a final assay volume of 100 μl and incubated for 30 min at 30° C. Using the cAMP-Nano-TRF detection kit the assay (Roche Diagnostics) was stopped by the addition of 50 μl lysis reagent (Tris, NaCl, 1.5% Triton X100, 2.5% NP40, 10% NaN3) and 50 μl detection solutions (20 μM mAb Alexa700-cAMP 1:1, and 48 μM Ruthenium-2-AHA-cAMP) and shaken for 2 h at room temperature. The time-resolved energy transfer is measured by a TRF reader (Evotec Technologies GmbH), equipped with a ND:YAG laser as excitation source. The plate is measured twice with the excitation at 355 nm and at the emission with a delay of 100 ns and a gate of 100 ns, total exposure time 10 s at 730 (bandwidth 30 nm) or 645 nm (bandwidth 75 nm), respectively. The FRET signal is calculated as follows: FRET=T730−Alexa730−P(T645−B645) with P=Ru730−B730/Ru645−B645, where T730 is the test well measured at […], T645 is the test well measured at 645 nm, B730 and B645 are the buffer controls at 730 nm and 645 nm, respectively. cAMP content is determined from the function of a standard curve spanning from 10 μM to 0.13 nM cAMP.
EC50 values were determined using Activity Base analysis (ID Business Solution, Limited). The EC50 values for a wide range of cannabinoid agonists generated from this assay for reference compounds were in agreement with the values published in the scientific literature.
(In general: Changes in cAMP serve as a functional read-out for many G protein-coupled receptors.)

T1 sequence (P34972 whole entry): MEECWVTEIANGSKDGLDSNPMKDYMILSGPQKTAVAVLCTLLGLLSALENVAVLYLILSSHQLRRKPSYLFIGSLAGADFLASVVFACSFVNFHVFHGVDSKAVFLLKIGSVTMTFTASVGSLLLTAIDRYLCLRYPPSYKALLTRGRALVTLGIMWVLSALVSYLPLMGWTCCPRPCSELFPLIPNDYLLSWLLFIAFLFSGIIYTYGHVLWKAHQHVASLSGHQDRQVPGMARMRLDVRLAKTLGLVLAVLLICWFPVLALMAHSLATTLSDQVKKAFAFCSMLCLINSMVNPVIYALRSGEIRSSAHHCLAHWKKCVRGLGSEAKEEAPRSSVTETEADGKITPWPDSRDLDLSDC

With `COCCOCC(C)(C)c1cc(NC(=O)c2ccc(C3CCCC3)c(OCC3CC3)n2)on1` [Example 29, 5-Cyclopentyl-6-(cyclopropylmethoxy)-N-[3-[1-(2-methoxyethoxy)-2-methylpropan-2-yl]-1,2-oxazol-5-yl]pyridine-2-carboxamide], the EC50 is 175 nM.
Next, `CCOCCOCC(C)(C)c1cc(NC(=O)c2ccc(C3CCCC3)c(OCC3CC3)n2)on1` [Example 30, 5-Cyclopentyl-6-(cyclopropylmethoxy)-N-[3-[1-(2-ethoxyethoxy)-2-methylpropan-2-yl]-1,2-oxazol-5-yl]pyridine-2-carboxamide]: 176 nM.
